Laboratory results from PMC8877149, “A Fungal Defensin Inhibiting Bacterial Cell-Wall Biosynthesis with Non-Hemolysis and Serum Stability” (Journal of Fungi, 2022).
Where a SMILES comes first, the peptide text is derived from it. Bridges are numbered along the chain shown (N, C = ends).

Key:
[1] = Serum stability assay (residual activity by inhibition-zone assay); assay type: in vitro ADME; details: undiluted fresh mouse serum, 37 °C, read-out inhibition zone on B. megaterium, 0.2 nmol/well, ns vs 0 h
Protocol: (§1) Hemolytic activity of peptides against fresh erythrocytes from ICR mice (Mus musculus) was assayed according to the standard method. Peptides were diluted with 0.9% NaCl to the indicated concentration. The percentage of hemolysis is determined as (Apep − Ablank)/(Atot − Ablank) × 100, in which “A” represents absorbance measured at 570 nm. Ablank and Apep were evaluated in the absence or presence of peptides. One hundred percent hemolysis (Atot) was obtained in the presence of 1% Triton X-100. For the stability assay, Py4 was incubated in H2O or fresh mouse serum for the indicated times at 37 °C and their residual activity was measured by the inhibition-zone assay.

[2] = test system: fresh erythrocytes from ICR mice; assay: Hemolysis assay; assay type: cell-based, Mus musculus; details: 3.125 to 25 µM, 2-fold serial dilutions, in 0.9% NaCl; A570; 100% = 1% Triton X-100
Protocol: as §1

[3] = test system: Staphylococcus aureus J685; assay: Inhibition-zone assay, lethal concentration (CL); assay type: cell-based; details: S. aureus J685
Protocol: (§2) The inhibition-zone assay was used to quantify the antibacterial activity of Py4, as described previously. In brief, an overnight bacterial culture from a single colony was inoculated into fresh medium and grew to the late log-phase. A 10 μL aliquot of each culture was diluted in 6 mL pre-heated medium containing 0.8% agar. The mixture was spread on a 9-cm Petri dish, giving a depth of 1 mm. After settling, 3-mm wells were punched in the plate and then 2 μL peptide samples of different concentrations were added to each well. The agar plates were incubated overnight at indicated temperatures. A lethal concentration (CL) was calculated from a plot of d^2 against log n, where d is the diameter (in cm) and n is the amount of sample applied in the well (in nmol). The plot is linear and thus CL can be calculated from the slope (k) and the intercept (m) of this plot. The formula used here was CL = 2.93/ak10^m/k, where a is the thickness of the bacterial plate and CL is in μM.

[4] = test system: Staphylococcus aureus CGMCC 1.89; assay: Inhibition-zone assay, lethal concentration (CL); assay type: cell-based
Protocol: as §2

[5] = test system: Staphylococcus aureus J698; assay: Inhibition-zone assay, lethal concentration (CL); assay type: cell-based; details: S. aureus J698
Protocol: as §2

[6] = test system: Staphylococcus aureus J706; assay: Inhibition-zone assay, lethal concentration (CL); assay type: cell-based; details: S. aureus J706
Protocol: as §2

[7] = test system: Methicillin-resistant Staphylococcus aureus P1374; assay: Inhibition-zone assay, lethal concentration (CL); assay type: cell-based; details: methicillin-resistant S. aureus P1374
Protocol: as §2

[8] = test system: Methicillin-resistant coagulase negative Staphylococci P1369; assay: Inhibition-zone assay, lethal concentration (CL); assay type: cell-based
Protocol: as §2

Curtobacterium luteum = assay: Inhibition-zone assay, lethal concentration (CL); assay type: cell-based
Protocol: as §2

[9] = test system: Methicillin-resistant Staphylococcus aureus P1386; assay: Inhibition-zone assay, lethal concentration (CL); assay type: cell-based; details: methicillin-resistant S. aureus P1386
Protocol: as §2

[10] = test system: Penicillin-resistant Staphylococcus epidermidis P1389; assay: Inhibition-zone assay, lethal concentration (CL); assay type: cell-based; details: penicillin-resistant S. epidermidis P1389
Protocol: as §2

[11] = test system: Staphylococcus warneri CGMCC 1.2824; assay: Inhibition-zone assay, lethal concentration (CL); assay type: cell-based
Protocol: as §2

[12] = test system: Bacillus megaterium CGMCC 1.0459; assay: Inhibition-zone assay, lethal concentration (CL); assay type: cell-based
Protocol: as §2

[13] = test system: Penicillin-sensitive Staphylococcus epidermidis P1111; assay: Inhibition-zone assay, lethal concentration (CL); assay type: cell-based; details: penicillin-sensitive S. epidermidis P1111
Protocol: as §2

[14] = test system: Bacillus megaterium cells; assay: Membrane permeability assay (propidium iodide fluorescence); assay type: cell-based; details: B. megaterium in PBS pH 7.3, 1 µM propidium iodide, peptide or vancomycin at 10 × CL, exc 525 nm / em 595 nm
Protocol: The membrane permeability assay was performed according to the method previously described. Meucin-18 and Meucin-49, two known scorpion venom lytic peptides, were used as positive controls and vancomycin, a known bacterial cell-wall synthesis inhibitor without membrane-disruptive ability as a negative control. Bacillus megaterium cells in 500 μL of phosphate buffered saline (PBS) (pH 7.3) were mixed with 1 μM propidium iodide (PI) for 5 min in the dark. Fluorescence was measured with the F-4500 FL spectrophotometer (Hitachi High-Tech Science Corporation, Tokyo, Japan). Once the basal fluorescence reached a constant value, peptides or vancomycin at 10 × CL were added, and changes in fluorescence arbitrary were monitored (λexc = 525 nm; λems = 595 nm).

S. warneri cells = assay: Cytoplasmic accumulation of UDP-MurNAc-pentapeptide (UMP); assay type: cell-based, Staphylococcus warneri; details: 130 µg/mL chloramphenicol pre-treatment 15 min, Py4 0.6 µM or vancomycin 2.0 µM, 30 min
Protocol: The cytoplasmic UDP-MurNAc-pentapeptide (abbreviated as UMP) accumulation experiment was carried out according to the method previously described. In brief, S. warneri cells were grown at 37 °C to an OD600 of 0.5 in 40 mL broth medium and then the culture was supplemented with 130 μg/mL chloramphenicol to impede bacterial cell proliferation by blocking their protein synthesis. After 15 min of incubation, the culture was divided into three equal portions, and one portion was treated with Py4 (0.6 μM), the second with vancomycin (2.0 μM), and the third was used as an untreated control. UMP was extracted from the harvested cells following 30 min of incubation. UMP was identified by MALDI−TOF on MALDI−TOF/TOF Ultraflextreme^TM (Bruker Daltonics, Bremen, Germany) using 2,5-dihydroxybenzoic acid (DHB) as the matrix in the negative-reflection ion mode.

S. aureus = test system: S. aureus; design: key: “+”, activity; “-“, no activity”; details: Figure 6, antibacterial activity; cited from earlier work
Text: Compared with plectasin, the natural variant Py4 has two point mutations at positions 14 and 33 (Figure 1A) that are respectively located on the α-helix (Q14K) and the C-loop (G33A) (Figure 1A). These two mutations are interesting considering their mutational effects previously reported in plectasin. (1) Position 14. […] Small dots represent identical residues to plectasin. Positions showing differences in the peptides are boxed and the mutated residues relative to plectasin are colored in red. Positions involved in intramolecular epistasis are linked by one line. The arrow points to the position accounting for differential genetic backgrounds between plectasin and Py4. […] “+”, activity; “-“, no activity”. TEXT PRINTED IN THE PICTURE: Ple ...

With `CC[C@H](C)[C@@H]1NC(=O)[C@H](CO)NC(=O)[C@H](CCCCN)NC(=O)[C@@H]2CSSC[C@@H](C(=O)N[C@@H](Cc3ccc(O)cc3)C(=O)O)NC(=O)[C@H](CCCCN)NC(=O)[C@@H]3CSSC[C@H](NC(=O)[C@H](CCCCN)NC(=O)[C@H](CCSC)NC(=O)[C@H](CC(=O)O)NC(=O)[C@H](CC(=O)O)NC(=O)[C@H](CCC(=O)O)NC(=O)[C@H](CC(=O)O)NC(=O)[C@H](Cc4c[nH]c5ccccc45)NC(=O)[C@@H]4CCCN4C(=O)CNC(=O)[C@H](CC(N)=O)NC(=O)[C@@H](NC(=O)CNC(=O)[C@H](Cc4ccccc4)NC(=O)CN)CSSC[C@H](NC(=O)[C@H](Cc4ccc(O)cc4)NC(=O)CNC(=O)CNC(=O)[C@H](CCCCN)NC(=O)[C@H](Cc4ccc(O)cc4)NC(=O)CNC(=O)[C@H](CCCCN)NC1=O)C(=O)N[C@@H](C)C(=O)N[C@@H](CCCCN)C(=O)N[C@@H](C)C(=O)NCC(=O)N[C@@H](Cc1ccccc1)C(=O)N[C@@H](C(C)C)C(=O)N3)C(=O)N[C@@H](Cc1c[nH]cn1)C(=O)N[C@@H](CC(N)=O)C(=O)N[C@@H](Cc1c[nH]cn1)C(=O)N2` [Py4, Pyronesin4] (H-GFGCNGPWDEDDMKCHNHCKSIKGYKGGYCAKAGFVCKCY-OH; disulfide 4-30, 15-37, 19-39) the “residual antibacterial activity after incubation in serum” value ([1]; 24 h) was “retained its full antibacterial activity”, the “residual antibacterial activity after incubation in serum” value ([1]; 48 h) was “retained its full antibacterial activity” and the “hemolysis on mouse blood cells” value [2] was “no significant hemolysis”. For the same compound, the “CL (lethal concentration)” value [3] was 2.69 µM, the “CL (lethal concentration)” value [4] was 1.22 µM and the “CL (lethal concentration)” value [5] was 2.69 µM. For the same compound, the “CL (lethal concentration)” value [6] was 2.51 µM, the “CL (lethal concentration)” value [7] was 2.69 µM and the “CL (lethal concentration)” value [8] was 4.78 µM. For the same compound, the “CL (lethal concentration)” value (Curtobacterium luteum) was 0.03 µM, the “CL (lethal concentration)” value [9] was 2.51 µM and the “CL (lethal concentration)” value [10] was 4.38 µM. The “CL (lethal concentration)” value [11] was 1.06 µM, the “CL (lethal concentration)” value [12] was 0.67 µM and the “CL (lethal concentration)” value [13] was 4.03 µM.

In the case of `CN[C@H](CC(C)C)C(=O)N[C@H]1C(=O)N[C@@H](CC(N)=O)C(=O)N[C@H]2C(=O)N[C@H]3C(=O)N[C@H](C(=O)N[C@H](C(=O)O)c4cc(O)cc(O)c4-c4cc3ccc4O)[C@H](O)c3ccc(c(Cl)c3)Oc3cc2cc(c3O[C@@H]2O[C@H](CO)[C@@H](O)[C@H](O)[C@H]2O[C@H]2C[C@](C)(N)[C@H](O)[C@H](C)O2)Oc2ccc(cc2Cl)[C@H]1O` [vancomycin], the “membrane-disruptive activity (PI fluorescence increase)” value [14] was “no obvious fluorescent increase” and the “cytoplasmic accumulation of UMP (RP-HPLC peak, MALDI-TOF identified)” value (S. warneri cells) was “common emerging peak”.

For “Plectasin (GFGCNGPWDEDDMQCHNHCKSIKGYKGGYCAKGGFVCKCY; UniProt Q53I06 56-95, looked up) [first fungal defensin found in Pseudoplectania nigrella, prototype of fungal defensin-like peptides]”, the Activity (S. aureus) is given as “+”.
